# Experiments:
# [1] = Dissolution of coumarin from PL75D/TP blend cap-coated shims in PBS; assay type: physicochemical; conditions: PL75D/TP cap coats over TL/coumarin base coat, 37° C., FIG. 8
# Procedure: PL75D was dried at 70° C. at reduced pressure overnight. The dried pellets were compressed between two plates that were pre-heated to 230° C. and maintained for about 5 minutes. After the sample was cooled down to room temperature, it was placed in a vial filled with THF and stirred until dissolved (by visual observation). TP and TL were directly dissolved in THF by stirring the mixtures at room temperature. Coumarin was also dissolved in THF. The concentrations of all the solutions were about 1 wt-%. TL solution and coumarin solution were mixed at a weigh ratio of 1:1. This mixture is the base coating solution of a reservoir system. TP solution and PL75D solution were mixed at various weight ratios to make five different mixtures with the weight ratios of TP to PL75D being 100:0, 75:25, 50:50, 25:75, and 0:100. […]
# Dissolution of coumarin from the cap-coated shims was conducted by placing the coated shims in glass vials that contained phosphate buffered saline solution (PBS, potassium phosphate monobasic (NF tested), 0.144 grams per liter (g/L), sodium chloride (USP tested), 9 g/L, and sodium phosphate dibasic (USP tested) 0.795 g/L, pH=7.0 to 7.2 at 37° C., purchased from HyClone, Logan, Utah). […] The concentration of coumarin in all these solutions was measured with a liquid chromatography (HP 1090) that was equipped with a UV detector. […]
# [2] = Merck Index 13 edit.; cited from earlier work
smiles,measurement,setting,value
O=c1ccc2ccccc2o1 [Coumarin],Release rate versus cap coat composition,[1],release much faster from a 100% PL75D coated shim than that from 100% TP coated shim
same,Volume of cold water in which one gram dissolves,[2],400 mL

# — patent US20040033251A1, “Active agent delivery system including a polyurethane, medical device, and method” (Medtronic, Inc., priority 2002, published 2004)
